Laboratory results reported in PubChem BioAssay (NCI).
“And” between values parts separate entries of the source, which are not always exact repeats. Equal values may be shown once.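 Protocol summary: plate cells (96-well), add compound at 5 concentrations, incubate 48 h, interpolate endpoints linearly. The concentration for 50% growth inhibition is given as GI50. TGI marks complete inhibition of growth.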

Tests used:
Test in all cases: NCI tumour cell line growth inhibition, 48 h
786-0 renal = system: 786-0 renal
A498 renal = system: A498 renal
A549 NSCLC = system: A549 NSCLC
ACHN renal = system: ACHN renal
CAKI-1 renal = system: CAKI-1 renal
CCRF-CEM leukemia = system: CCRF-CEM leukemia
DLD-1 colon = system: DLD-1 colon
DMS 114 small cell lung = system: DMS 114 small cell lung
DMS 273 small cell lung = system: DMS 273 small cell lung
EKVX NSCLC = system: EKVX NSCLC
HCC-2998 colon = system: HCC-2998 colon
HCT-116 colon = system: HCT-116 colon
HCT-15 colon = system: HCT-15 colon
HL-60(TB) leukemia = system: HL-60(TB) leukemia
HOP-18 NSCLC = system: HOP-18 NSCLC
HOP-62 NSCLC = system: HOP-62 NSCLC
HOP-92 NSCLC = system: HOP-92 NSCLC
HT29 colon = system: HT29 colon
IGROV1 ovarian = system: IGROV1 ovarian
K-562 leukemia = system: K-562 leukemia
KM12 colon = system: KM12 colon
KM20L2 colon = system: KM20L2 colon
LOX IMVI melanoma = system: LOX IMVI melanoma
LXFL 529 NSCLC = system: LXFL 529 NSCLC
M14 melanoma = system: M14 melanoma
M19-MEL melanoma = system: M19-MEL melanoma
MALME-3M melanoma = system: MALME-3M melanoma
MOLT-4 leukemia = system: MOLT-4 leukemia
NCI-H226 lung = system: NCI-H226 lung
NCI-H23 lung = system: NCI-H23 lung
NCI-H460 lung = system: NCI-H460 lung
NCI-H522 lung = system: NCI-H522 lung
OVCAR-4 ovarian = system: OVCAR-4 ovarian
OVCAR-5 ovarian = system: OVCAR-5 ovarian
OVCAR-8 ovarian = system: OVCAR-8 ovarian
RPMI-8226 leukemia = system: RPMI-8226 leukemia
RXF 393 renal = system: RXF 393 renal
RXF-631 renal = system: RXF-631 renal
SF-268 CNS = system: SF-268 CNS
SF-295 CNS = system: SF-295 CNS
SF-539 CNS = system: SF-539 CNS
SK-MEL-2 melanoma = system: SK-MEL-2 melanoma
SK-MEL-28 melanoma = system: SK-MEL-28 melanoma
SK-MEL-5 melanoma = system: SK-MEL-5 melanoma
SK-OV-3 ovarian = system: SK-OV-3 ovarian
SN12C renal = system: SN12C renal
SNB-19 CNS = system: SNB-19 CNS
SNB-75 CNS = system: SNB-75 CNS
SNB-78 CNS = system: SNB-78 CNS
SR leukemia = system: SR leukemia
SW-620 colon = system: SW-620 colon
TK-10 renal = system: TK-10 renal
U251 CNS = system: U251 CNS
UACC-257 melanoma = system: UACC-257 melanoma
UACC-62 melanoma = system: UACC-62 melanoma
UO-31 renal = system: UO-31 renal
XF 498 CNS = system: XF 498 CNS
BT-549 breast = system: BT-549 breast
DU-145 prostate = system: DU-145 prostate
MCF7 breast = system: MCF7 breast
P388 leukemia = system: P388 leukemia
P388/ADR leukemia = system: P388/ADR leukemia
SN12K1 renal = system: SN12K1 renal

## CN(C)C(=S)/N=C(\N)N(C)C
786-0 renal
  TGI: > 100 µM
A498 renal
  TGI: > 100 µM
A549 NSCLC
  TGI: > 100 µM
ACHN renal
  TGI: > 100 µM
CAKI-1 renal
  TGI: > 100 µM
CCRF-CEM leukemia
  TGI: > 100 µM
DLD-1 colon
  TGI: > 100 µM
DMS 114 small cell lung
  TGI: > 100 µM
DMS 273 small cell lung
  TGI: > 100 µM
EKVX NSCLC
  TGI: > 100 µM
HCC-2998 colon
  TGI: > 100 µM
HCT-116 colon
  TGI: > 100 µM
HCT-15 colon
  TGI: > 100 µM
HL-60(TB) leukemia
  TGI: > 100 µM
HOP-18 NSCLC
  TGI: > 100 µM
HOP-62 NSCLC
  TGI: > 100 µM
HOP-92 NSCLC
  TGI: > 100 µM
HT29 colon
  TGI: > 100 µM
IGROV1 ovarian
  TGI: > 100 µM
K-562 leukemia
  TGI: > 100 µM
KM12 colon
  TGI: > 100 µM
KM20L2 colon
  TGI: > 100 µM
LOX IMVI melanoma
  TGI: > 100 µM
LXFL 529 NSCLC
  TGI: > 100 µM
M14 melanoma
  TGI: > 100 µM
M19-MEL melanoma
  TGI: > 100 µM
MALME-3M melanoma
  TGI: > 100 µM
MOLT-4 leukemia
  TGI: > 100 µM
NCI-H226 lung
  TGI: > 100 µM
NCI-H23 lung
  TGI: > 100 µM
NCI-H460 lung
  TGI: > 100 µM
NCI-H522 lung
  TGI: > 100 µM
OVCAR-4 ovarian
  TGI: > 100 µM
OVCAR-5 ovarian
  TGI: > 100 µM
OVCAR-8 ovarian
  TGI: > 100 µM
RPMI-8226 leukemia
  TGI: > 100 µM
RXF 393 renal
  TGI: > 100 µM
RXF-631 renal
  TGI: > 100 µM
SF-268 CNS
  TGI: > 100 µM
SF-295 CNS
  TGI: > 100 µM
SF-539 CNS
  TGI: > 100 µM
SK-MEL-2 melanoma
  TGI: > 100 µM
SK-MEL-28 melanoma
  TGI: > 100 µM
SK-MEL-5 melanoma
  TGI: > 100 µM
SK-OV-3 ovarian
  TGI: > 100 µM
SN12C renal
  TGI: > 100 µM
SNB-19 CNS
  TGI: > 100 µM
SNB-75 CNS
  TGI: > 100 µM
SNB-78 CNS
  TGI: > 100 µM
SR leukemia
  TGI: > 100 µM
SW-620 colon
  TGI: > 100 µM
TK-10 renal
  TGI: > 100 µM
U251 CNS
  TGI: > 100 µM
UACC-257 melanoma
  TGI: > 100 µM
UACC-62 melanoma
  TGI: > 100 µM
UO-31 renal
  TGI: > 100 µM
XF 498 CNS
  TGI: > 100 µM

## O=c1[nH]c(=O)n(C2CC(O)C(CO)O2)cc1F (stereo unspecified)
786-0 renal
  TGI: > 100 µM and 1790 µM and > 2500 µM
A498 renal
  TGI: > 100 µM and 84.7 µM
A549 NSCLC
  TGI: > 100 µM and 1910 µM and > 2500 µM
ACHN renal
  GI50: > 92.6 µM
  TGI: > 100 µM and 1670 µM
BT-549 breast
  TGI: > 100 µM and 1030 µM and > 869 µM
CAKI-1 renal
  TGI: > 100 µM and 1100 µM and > 2500 µM
DMS 114 small cell lung
  TGI: 808 µM
DMS 273 small cell lung
  TGI: 415 µM
DU-145 prostate
  TGI: > 100 µM and > 1570 µM and 1820 µM
HCC-2998 colon
  GI50: 33.6 µM
HT29 colon
  TGI: > 100 µM and 2400 µM and > 2500 µM
K-562 leukemia
  TGI: > 100 µM and 1080 µM
MCF7 breast
  TGI: > 100 µM and 1940 µM and > 2500 µM
MOLT-4 leukemia
  TGI: > 100 µM and 1930 µM and > 2500 µM
NCI-H23 lung
  TGI: > 100 µM and 239 µM
NCI-H460 lung
  GI50: > 65.3 µM
  TGI: > 100 µM and 526 µM
OVCAR-5 ovarian
  TGI: > 100 µM and 2330 µM and > 2500 µM
OVCAR-8 ovarian
  TGI: > 100 µM and 2320 µM and > 2500 µM
P388 leukemia
  TGI: 179 µM
P388/ADR leukemia
  TGI: 74.9 µM
SF-539 CNS
  GI50: > 79.3 µM
SK-MEL-28 melanoma
  TGI: > 100 µM and 1730 µM and > 2500 µM
SN12K1 renal
  TGI: 1250 µM
SNB-19 CNS
  TGI: > 100 µM and 1750 µM and > 2500 µM
SR leukemia
  TGI: > 100 µM and 750 µM
TK-10 renal
  TGI: > 100 µM and 1650 µM and > 2500 µM
UO-31 renal
  TGI: > 100 µM and 130 µM
